# “Also recorded” adds a separate entry of the source. Like-named read-outs stand apart in the source and are kept apart here.
# How the values were obtained:
# [1] = tested on: Zucker Diabetic Fatty (ZDF) rats; test: Glycemic control and HbA1c in Zucker Diabetic Fatty rats, 28-day dosing plus washout; assay type: in vivo
# Procedure: Rats were treated daily with Compound 10, liraglutide, or vehicle for twenty-eight days and monitored for an additional twenty-eight days post-treatment.
# Zucker Diabetic Fatty (ZDF) rats were dosed daily with Compound 10, liraglutide, or vehicle for twenty-eight days (n=10 per group) and monitored for an additional twenty-eight days post last dose. Fasting blood glucose, insulin, C-peptide levels, HbA1c, oral glucose tolerance test (OGTT), and body weight were monitored during and post-treatment.
# ZDF Rat Model—five treatment groups 1. Vehicle; 2. Compound 10 at 40 mg/kg; 3. Compound 10 at 85 mg/kg; 4. Compound 10 at 170 mg/kg; and 5. Liraglutide at 0.2 mg/kg; n=10 per group. Group 2 dose (40 mg/kg) was increased to 200 mg/kg on Day 17 for rest of the dosing phase. Daily dosing zero to twenty-eight days days QD→drug wash out twenty-eight to fifty-six days. Rats were monitored for the following parameters through dosing and wash out phases—body weight, fasting blood sugar, blood insulin, C-peptide, OGTT, and HbA1C.
# [2] = Clinical study (SAD, food effect, MAD cohorts) in healthy and type 2 diabetes mellitus subjects; assay type: in vivo, human; settings: human, in vivo, oral; for AUC: read-out: Exposure: AUC; for Cmax: read-out: Exposure: Cmax
# Procedure: (§1) In Experimental Phase 1 (SAD cohorts), 40 healthy adult subjects were randomized into 4 dose escalating cohorts of 10. In each cohort, subjects were randomized at 7:3 (active and placebo) in sequential order. Each cohort was composed of 2 sentinel subjects randomized at 1:1 (active and placebo), followed by 8 additional subjects randomized at 3:1 (active and placebo). Doses were 100 mg, 200 mg, 400 mg, and 600 mg.
# (§2) In Experimental Phase 1 (3-period crossover, food effect study), each cohort of 12 healthy adult subjects was randomized at 1:1:1:1:1:1 in a 3-period crossover study with 6 treatment sequences.
# (§3) In Experimental Phase 2 (MAD cohorts), 1 cohort of 16 healthy adult subjects was randomized at 3:1 (active and placebo), and 7 cohorts of type 2 diabetes mellitus adult subjects were randomized at 5:1 (active and placebo) to obtain safety and efficacy data to identify the potential optimal biological dose (OBD) and a recommended Phase 2 dose (RP2D). Doses were 100 mg, 200 mg, 400 mg, and 600 mg.
# [3] = tested on: healthy adult subjects and type 2 diabetes mellitus adult subjects; test: as above; assay type: in vivo, human
# Procedure: as §1, §2, §3
# [4] = tested on: KRAS and MEN1 expression in MiaPaCa-2 cells; test: RNA-seq gene expression in MiaPaCa-2 cells; assay type: cell-based, human; settings: 0.5 μM and 1 μM, twenty-four hours
# Procedure: MOLM-13 and MiaPaCa-2 cells were incubated with Compound A for twenty-four hours and were analyzed by RNA-seq on an Illumina NextSeq 550 platform. […] Cell viability was measured using CellTiter Glo. Human ex vivo PDX tissue models harboring KRAS mutations were cultured with Compound A and clinical reversible menin inhibitors for six days. Cell viability was measured using CellTiter Glo.
# DB = test: DLBCL cell line proliferation (Cell Titer Glo, four days): DB; assay type: cell-based; settings: DHL
# Procedure: (§4) DLBCL cell line TOLEDO was cultured in the presence of Compound A or clinical reversible menin inhibitors for six and fourteen hours. Menin protein expression was reduced up to 60% at 1 μM by Compound A after fourteen hours compared to clinical reversible inhibitors at <20% at similar concentrations. Menin protein expression was measured by the Wes system and analyzed using the Compass software (automated western blotting, Protein Simple). Signal was normalized to GAPDH and referenced to DMSO control (FIG. 36E). DLBCL and MM cell lines were cultured with Compound A, bortezomib (PS-341), or DMSO for four days and cell proliferation was measured by Cell Titer Glo. Ex vivo studies of DLBCL and MM models were conducted by measurement of cell proliferation (Cell Titer Glo) after six days of treatment with Compound A, PS-341, or DMSO control.
# Toledo = test: DLBCL cell line proliferation (Cell Titer Glo, four days): Toledo; assay type: cell-based; settings: DHL, MYC/BCL2
# Procedure: as §4
# VAL = test: DLBCL cell line proliferation (Cell Titer Glo, four days): VAL; assay type: cell-based; settings: THL
# Procedure: as §4
# U2932 = test: DLBCL cell line proliferation (Cell Titer Glo, four days): U2932; assay type: cell-based; settings: U2932, DEL-ABC, MYC/BCL2 Overexpression
# Procedure: as §4
# OCI-LY7 = test: DLBCL cell line proliferation (Cell Titer Glo, four days): OCI-LY7; assay type: cell-based; settings: OCI-LY7, GCB
# Procedure: as §4
# MM cell lines = test: MM cell line panel proliferation (Cell Titer Glo, four days); assay type: cell-based
# Procedure: Compound A was tested against a THL cell line (VAL), and a DEL cell line (U2932). An expanded panel of DHL cell lines were tested for sensitivity to Compound A. Ex vivo patient samples of THL and MYC-amplified DLBCL were tested with Compound A. Sensitivity of THL and MYC-driven DLBCL in both in vitro and ex vivo models were compared with clinical reversible menin inhibitors. Compound A was tested against a panel of MM cell lines and ex vivo MM patient samples of p53del, 13qdel, and relapsed/refractory cases.
# as §4
# MM1.S = test: MM cell line proliferation (Cell Titer Glo, four days): MM1.S; assay type: cell-based; settings: t(14; 16), KRAS G12A
# Procedure: as §4
# SKMM1 = test: MM cell line proliferation (Cell Titer Glo, four days): SKMM1; assay type: cell-based; settings: SKMM1, t(14; 20), NRAS G12A
# Procedure: as §4
# [5] = tested on: KRAS mutated CRC, NSCLC and pancreatic cancer cell lines; test: Proliferation of KRAS mutated cell lines (CellTiter-Glo, four days); assay type: cell-based; settings: Homo sapiens, the 31st table c5, read-out: RAS WT GI50 (μM) Pancreatic (4)
# [6] = Homo sapiens, read-out: Average IC50 ± Standard Deviation
smiles,measurement,setting,value
"C=CC(=O)N[C@@H]1CCCN(Cc2ccnc(C(=O)Nc3ccc(-c4cc5c(N6CCOCC6)ncnc5[nH]4)cc3)c2)C1 [Compound A, N-[4-[4-(4-morpholinyl)-7H-pyrrolo[2,3-d]pyrimidin-6-yl]phenyl]-4-[[3(R)-[(1-oxo-2-propen-1-yl)amino]-1-piperidinyl]methyl]-2-pyridinecarboxamide]",absolute reduction in HbA1C versus vehicle,"[1]; 28-day daily dosing, Day 29",3.5%
same,"fasting blood glucose levels, mid- and high-dose arms",[1]; 85 and 170 mg/kg,reduction in fasting blood glucose levels similar to liraglutide
same,glycemic control by oral glucose tolerance test (OGTT),"[1]; Day 25, vs vehicle",improved glycemic control
same,HbA1c absolute amount lower than the liraglutide group,[1]; Day 29,1.8%
same,HbA1c reduced from vehicle (relative),[1]; Day 29,33%
same,HbA1c relative reduction stated beside the difference to the liraglutide group,"[1]; Day 29, reduced from vehicle",20%
same,tolerability,[1]; daily for twenty-eight days,All animals tolerated Compound 10 well
same,HbA1c at all doses tested,[1]; effects lasting fifteen days after the last dose,significant reductions in HbA1c
same,"4-hour fasting blood glucose, high-dose arm","[1]; high-dose group, up to Day 29, listed as Compound 10",strong reduction; also recorded: sustained and significant reduction in fasting blood glucose
same,body weight and fasting blood glucose levels over time,[1]; twenty-eight days of treatment (FIG. 28),progressive increase in body weight and fasting blood glucose levels over time
same,Fasting insulin and c-peptide levels,[1]; up to last day of dosing and two weeks post last dose,elevated
same,AUC,[2]; Cohort 2 (taken with food),84.3 ng·h/mL
same,Cmax,[2]; Cohort 2 (taken with food),34.8 ng/mL
same,AUC,[2]; Cohort 3 (taken without food),224 ng·h/mL
same,Cmax,[2]; Cohort 3 (taken without food),94.2 ng/mL
same,dose discontinuations,[3]; 4 weeks of treatment,no dose discontinuations
same,episodes of symptomatic hypoglycemia,[3]; 4 weeks of treatment,No episodes of symptomatic hypoglycemia occurred in any patients
same,safety profile,[3]; 4 weeks of treatment,well-tolerated safety profile
same,severe or serious TEAEs,[3]; 4 weeks of treatment,No severe or serious TEAEs were observed
same,Mean Change in HbA1c % at Week 4,[3]; Cohort 2,(−0.25) %
same,Median Change in HbA1c % at Week 4,[3]; Cohort 2,−0.3%
same,Mean Change in HbA1c % at Week 4,[3]; Cohort 3,(−0.81) %
same,Median Change in HbA1c % at Week 4,[3]; Cohort 3,−1.0%
same,patients who achieved a reduction in HbA1c,[3]; any reduction,89%
same,median change of Hb1Ac,[3]; cohort when taken with food,-0.3%
same,median change of Hb1Ac,[3]; cohort when taken without food,-1%
same,patients who achieved ≥0.5% reduction in HbA1c,"[3]; human, in vivo",78%
same,patients who achieved ≥1% reduction in HbA1c,"[3]; human, in vivo",56%
same,KRAS and MEN1 expression levels,[4],marked reduction; also recorded: dramatically decreased
same,Average % Max Inhibition by Compound A,DB; MYC/BCL2,98.5%
same,IC50,"DB; Homo sapiens, MYC/BCL2, read-out: Average IC50 ± Standard Deviation",407 ± 67 nM
same,Average % Max Inhibition by Compound A,Toledo,98.8%
same,Average % Max Inhibition by Compound A,VAL; MYC/BCL2/BCL6,97.1%
same,IC50,"VAL; MYC/BCL2/BCL6, read-out: Average IC50 ± Standard Deviation",271 ± 70 nM
same,IC50,U2932; [6],370 ± 12 nM
same,Average % Max Inhibition by Compound A,U2932,92.4%
same,IC50,OCI-LY7; [6],650 ± 260 nM
same,Average % Max Inhibition by Compound A,OCI-LY7,99.6%
same,cell lethality,MM cell lines; MM cell lines,> 99%
same,growth inhibition,"MM cell lines; MM cell lines harboring mutations in TP53, KRAS, and NRAS, 1 μM exposure, single agent",100%
same,Average % Max Inhibition by Compound A,MM1.S,99.5%
same,Average % Max Inhibition by Compound A,SKMM1,99.2%
same,IC50,SKMM1; read-out: Average IC50 ± Standard Deviation,467 ± 50 nM
same,GI50,[5],0.43 to 0.83 µM

# From patent publication US20240417404A1, “CRYSTALLINE FORMS OF N-[4-[4-(4-MORPHOLINYL)-7H-PYRROLO[2,3-d]PYRIMIDIN-6-YL]PHENYL]-4-[[3(R)-[(1-OXO-2-PROPEN-1-YL)AMINO]-1-[sequence]]METHYL]-2-PYRIDINECARBOXAMIDE AS IRREVERSIBLE INHIBITORS OF MENIN-MLL INTERACTION” (BIOMEA FUSION, INC., priority 2023, published 2024)
